Measurements taken from patent US4307104A, “Guanidine compounds” (Smith Kline & French Laboratories Limited, priority 1979, dated 1981).

Test system: histamine H2 -receptors
Assay: inhibition of histamine-stimulated secretion of gastric acid from the lumen-perfused stomachs of rats anaesthetised with urethane
Assay type: in vivo
Conditions: i.v., lumen-perfused stomach of urethane-anaesthetised rats

SMILES: N=C(N)Nc1nc(CSCCNC2=C([N+](=O)[O-])CCCN2)cs1 [Example 1, 2-[2-(2-Guanidino-4-thiazolylmethylthio)ethylamino-]-3-nitro-1,4,5,6-tetrahydropyridine]
- dose causing 50% inhibition of maximal acid secretion: less than 0.1 micromole kh^-1
